# ChEMBL document CHEMBL1201862, “PubChem BioAssay data set” (2004)
# Active and inactive are the calls of the source.
# What was measured:
# [1] = target: Glyceraldehyde-3-phosphate dehydrogenase (Homo sapiens, UniProt P04406)
# [2] = cytotoxicity toward DRD oncogenic fibroblasts, dose response, cell-based, non-viral oncogenic, luminescence (AID 1934); type: functional; conditions: Homo sapiens
# HT-1080 = test: cytotoxicity in HT1080 fibrosarcoma cells, cell-based, fluorescence readout (AID 620); type: functional; conditions: Homo sapiens
# BJ [3] = test: cytotoxicity toward BJ-TERT fibroblasts, dose response, cell-based, RAS-independent, luminescence (AID 1933); type: functional; conditions: Homo sapiens
# HEK293 = test: inhibitors of LMP1-driven NF-kB reporter, dose response, cell-based, HEK293, luciferase, cherry-pick (AID 588343); type: functional; conditions: Homo sapiens
# BJ [4] = test: cells; type: functional, cell-based; conditions: Homo sapiens
# cells = type: functional, cell-based
# [5] = target: T1, Nuclear receptor subfamily 0 group B member 1 (Homo sapiens, UniProt P51843); type: functional, cell-based;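 note: HEK293T cells transfected with SF-1 and DAX-1 plus StAR promoter luciferase reporter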
# T1 sequence (P51843 whole entry): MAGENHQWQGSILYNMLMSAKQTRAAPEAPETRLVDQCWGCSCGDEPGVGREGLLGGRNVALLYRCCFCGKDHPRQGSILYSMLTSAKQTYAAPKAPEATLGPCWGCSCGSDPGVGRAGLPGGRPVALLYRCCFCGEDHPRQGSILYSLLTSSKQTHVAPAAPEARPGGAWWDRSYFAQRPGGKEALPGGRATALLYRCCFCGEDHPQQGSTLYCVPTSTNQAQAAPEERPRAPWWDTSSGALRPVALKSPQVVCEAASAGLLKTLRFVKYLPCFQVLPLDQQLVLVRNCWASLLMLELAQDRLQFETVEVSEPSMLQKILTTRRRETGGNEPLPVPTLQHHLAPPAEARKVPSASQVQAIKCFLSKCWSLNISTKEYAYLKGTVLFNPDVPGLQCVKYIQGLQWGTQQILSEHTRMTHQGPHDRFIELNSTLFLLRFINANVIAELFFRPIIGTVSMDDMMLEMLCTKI
# [6] = target: Luciferin 4-monooxygenase (Photinus pyralis, UniProt P08659); test: Counter Screen for Luciferase-based Assay Positives. [Related pubchem assays: 620, 618, 411 ]
# BJ [7] = test: cytotoxicity toward BJ-TERT-LT-ST fibroblasts, dose response, cell-based, RAS-independent, luminescence (AID 1935); type: functional; conditions: Homo sapiens;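 note: BJ fibroblasts immortalized with TERT plus LT and ST oncogenes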
# [8] = target: Epstein-Barr nuclear antigen 1 (Epstein-Barr virus (strain B95-8) (HHV-4) (Human herpesvirus 4), UniProt P03211); test: EBNA-1 inhibitors, dose response, biochemical, fluorescence polarization, 1536-well (AID 2381); set-up: species or system human gammaherpesvirus 4;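 note: fluorescence polarization of a Cy5 DNA probe bound by EBNA-1 protein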
# [9] = target: Lytic switch protein BZLF1 (Epstein-Barr virus (strain B95-8) (HHV-4) (Human herpesvirus 4), UniProt P03206); test: EBV ZTA inhibitors, dose response, counter-screen for EBNA-1 inhibitor project, biochemical, fluorescence polarization, Epstein-Barr virus, 1536-well (AID 2377); set-up: species or system human gammaherpesvirus 4;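 note: fluorescence polarization of Cy5-labelled ZRE DNA probe bound by purified Zta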
# Estrogen receptor = target: T2, Estrogen receptor (Homo sapiens, UniProt P03372);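 note: potency for inhibiting coactivator peptide recruitment to the receptor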
# T2 sequence (P03372 whole entry): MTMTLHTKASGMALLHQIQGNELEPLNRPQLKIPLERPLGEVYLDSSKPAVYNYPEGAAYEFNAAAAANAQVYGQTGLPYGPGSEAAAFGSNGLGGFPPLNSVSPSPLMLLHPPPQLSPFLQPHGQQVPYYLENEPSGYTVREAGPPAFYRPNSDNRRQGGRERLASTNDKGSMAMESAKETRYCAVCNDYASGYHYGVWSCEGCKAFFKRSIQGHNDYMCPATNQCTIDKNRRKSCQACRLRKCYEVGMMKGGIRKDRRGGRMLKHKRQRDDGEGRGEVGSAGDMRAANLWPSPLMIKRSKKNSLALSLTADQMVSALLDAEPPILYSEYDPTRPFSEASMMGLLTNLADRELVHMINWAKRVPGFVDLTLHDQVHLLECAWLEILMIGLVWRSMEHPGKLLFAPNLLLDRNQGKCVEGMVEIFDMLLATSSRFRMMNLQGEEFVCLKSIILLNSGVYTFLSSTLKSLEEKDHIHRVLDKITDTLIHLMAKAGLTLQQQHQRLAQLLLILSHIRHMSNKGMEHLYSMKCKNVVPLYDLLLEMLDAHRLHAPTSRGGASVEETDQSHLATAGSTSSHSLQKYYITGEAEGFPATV
# [10] = A Cell Based Secondary Assay To Explore Cytotoxicity of Compounds that Sensitize Mycobacterium Tuberculosis to Beta-Lactam Antibiotics.; type: functional
# [11] = target: T3, Sphingosine 1-phosphate receptor 4 (Homo sapiens, UniProt O95977); test: Fluorescence dose response cell-based high throughput screening assay for antagonists of the Sphingosine 1-Phosphate Receptor 4 (S1P4). [Related pubchem assays: 1524 (Confirmation in triplicates.), 1510 (Primary screen.)]; type: functional
# T3 sequence (O95977 whole entry): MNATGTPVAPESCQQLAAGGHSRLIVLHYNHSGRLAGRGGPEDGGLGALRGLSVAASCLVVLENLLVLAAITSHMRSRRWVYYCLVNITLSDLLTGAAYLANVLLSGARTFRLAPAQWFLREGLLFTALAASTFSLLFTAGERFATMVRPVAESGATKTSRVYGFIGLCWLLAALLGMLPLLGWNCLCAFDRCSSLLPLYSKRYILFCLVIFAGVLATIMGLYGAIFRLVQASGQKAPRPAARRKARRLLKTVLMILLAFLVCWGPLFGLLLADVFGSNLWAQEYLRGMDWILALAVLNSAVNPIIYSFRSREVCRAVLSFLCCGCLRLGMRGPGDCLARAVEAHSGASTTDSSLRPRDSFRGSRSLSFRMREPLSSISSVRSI
# Vero [12] = test: cells; type: functional, cell-based; conditions: Chlorocebus sabaeus
# [13] = target: Sphingosine 1-phosphate receptor 1 (Homo sapiens, UniProt P21453); type: functional;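 note: Tango beta-arrestin reporter U2OS cells stimulated with S1P near its EC80; inhibitor potency meaning antagonism of receptor activation by the natural agonist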
# Vero [14] = test: cells; type: functional; conditions: Chlorocebus sabaeus
# [15] = target: Peroxisome proliferator-activated receptor gamma/Nuclear receptor coactivator 2 (Homo sapiens, UniProt P37231); type: functional;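 note: agonist potency for raising coactivator recruitment to the receptor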
# Cytochrome P450 2C19 = Cytochrome P450 2C19 (Homo sapiens, UniProt P33261); test: Cytochrome panel assay with activity outcomes. Panel member name: p450-cyp2c19 Compounds with AC50 equal or less than 10 uM are considered active; type: functional; conditions: read-out: AC50
# [16] = target: Peroxisome proliferator-activated receptor gamma/Nuclear receptor coactivator 3 (Homo sapiens, UniProt P37231); type: functional;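 note: agonist potency for raising coactivator recruitment to the receptor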
# Cytochrome P450 2C9 = Cytochrome P450 2C9 (Homo sapiens, UniProt P11712)
# [17] = target: Peroxisome proliferator-activated receptor gamma/Nuclear receptor coactivator 1 (Homo sapiens, UniProt P37231); type: functional;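 note: agonist potency as compounds enhance coactivator SRC-1 recruitment to PPARgamma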
# [18] = target: T4, High affinity choline transporter 1 (Homo sapiens, UniProt Q9GZV3); test: CHT inhibitors, dose response, cell-based, 5-point CRC, membrane potential dye (AID 504840); type: functional
# T4 sequence (Q9GZV3 whole entry): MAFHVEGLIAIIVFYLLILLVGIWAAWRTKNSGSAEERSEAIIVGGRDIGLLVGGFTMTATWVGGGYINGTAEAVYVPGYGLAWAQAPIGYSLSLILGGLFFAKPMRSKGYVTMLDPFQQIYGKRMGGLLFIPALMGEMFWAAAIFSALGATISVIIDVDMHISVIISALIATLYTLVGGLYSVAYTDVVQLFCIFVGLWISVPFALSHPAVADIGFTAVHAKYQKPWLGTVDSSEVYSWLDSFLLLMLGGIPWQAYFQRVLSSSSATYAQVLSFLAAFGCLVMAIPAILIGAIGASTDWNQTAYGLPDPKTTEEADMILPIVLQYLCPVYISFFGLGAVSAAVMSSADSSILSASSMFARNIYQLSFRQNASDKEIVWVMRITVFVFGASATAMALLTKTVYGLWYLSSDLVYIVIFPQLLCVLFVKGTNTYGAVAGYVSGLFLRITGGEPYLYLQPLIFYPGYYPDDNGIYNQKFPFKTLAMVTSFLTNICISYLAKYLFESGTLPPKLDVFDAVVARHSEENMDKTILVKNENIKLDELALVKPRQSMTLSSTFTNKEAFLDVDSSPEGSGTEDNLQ
# [19] = target: T4, High affinity choline transporter 1; test: CHT inhibitors, dose response, cell-based, 10-point CRC, membrane potential dye (AID 588401); type: functional;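 note: membrane potential dye fluorescence of choline-evoked depolarization via CHT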
# [20] = HIV-1 Env-mediated cell fusion inhibitors, dose response, CCR5-tropic Env (AID 2279); type: functional
# [21] = target: T5, Voltage-gated N-type calcium channel alpha-1B subunit/Amyloid beta A4 precursor protein-binding family A member 1 (Homo sapiens, UniProt Q00975+Q02410); type: protein assay
# [22] = test system: Streptococcus sp. 'group A'; test: growth inhibition of control SK(-) GAS strain, dose response, counter-screen for streptokinase expression inhibitor project, luminescence, kanamycin, BacTiterGlo, confirmation (AID 1900); type: functional, organism-based
# [23] = target: T5, Voltage-gated N-type calcium channel alpha-1B subunit/Amyloid beta A4 precursor protein-binding family A member 1; type: protein assay; remark: listed apart in the source
# [24] = target: Induced myeloid leukemia cell differentiation protein Mcl-1 (Homo sapiens, UniProt Q07820); type: functional
# Streptococcus = test: Group A Streptococcus viability loss, dose response, counter-screen for streptokinase expression inhibitor project, luminescence, BacTiterGlo (AID 1915); type: functional, organism-based;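 note: potency for reduction of bacterial viability or growth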
# Streptokinase A = target: T6, Streptokinase A (Streptococcus pyogenes serotype M1, UniProt P10520); test: S. pyogenes streptokinase expression inhibitors, potency, dose response, plasminogen activation absorbance, OD405 (AID 1914); type: functional, Streptococcus pyogenes M1 GAS;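 note: secreted streptokinase activity via plasminogen activation per viability signal from cell pellet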
# T6 sequence (P10520 whole entry): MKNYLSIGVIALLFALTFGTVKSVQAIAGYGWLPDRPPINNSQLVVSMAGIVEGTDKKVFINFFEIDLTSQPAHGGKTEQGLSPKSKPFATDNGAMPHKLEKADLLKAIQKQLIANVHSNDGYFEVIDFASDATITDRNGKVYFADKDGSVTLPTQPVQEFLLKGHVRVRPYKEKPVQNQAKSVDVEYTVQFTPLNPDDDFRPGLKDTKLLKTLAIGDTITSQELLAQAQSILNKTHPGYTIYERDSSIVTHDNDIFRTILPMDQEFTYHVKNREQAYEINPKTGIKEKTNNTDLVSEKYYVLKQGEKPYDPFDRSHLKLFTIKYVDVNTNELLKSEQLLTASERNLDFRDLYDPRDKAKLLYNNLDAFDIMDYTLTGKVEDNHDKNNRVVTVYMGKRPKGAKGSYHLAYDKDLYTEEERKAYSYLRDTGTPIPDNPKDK
# [25] = A Cell Based Assay for the Identification of Probe candidate Compounds with Anti- Venezuelan Equine Encephalitis virus. [Related pubchem assays: 2409, 2419, 1621, 2238, 2405, 2024, 2065, 2402, 2414, 1635, 1650, 2244 ]; type: functional
# Glyceraldehyde-3-phosphate dehydrogenase, sequence (P04406 whole entry): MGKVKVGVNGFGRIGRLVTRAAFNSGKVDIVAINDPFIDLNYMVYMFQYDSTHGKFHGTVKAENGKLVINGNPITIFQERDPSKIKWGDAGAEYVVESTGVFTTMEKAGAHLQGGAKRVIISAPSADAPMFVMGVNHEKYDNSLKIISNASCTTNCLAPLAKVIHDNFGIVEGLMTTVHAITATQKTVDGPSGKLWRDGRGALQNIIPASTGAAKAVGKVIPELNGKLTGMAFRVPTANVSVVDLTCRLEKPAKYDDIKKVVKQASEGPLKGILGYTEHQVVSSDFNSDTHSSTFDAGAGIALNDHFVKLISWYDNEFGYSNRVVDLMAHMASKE
# T5 sequence (Q00975 whole entry): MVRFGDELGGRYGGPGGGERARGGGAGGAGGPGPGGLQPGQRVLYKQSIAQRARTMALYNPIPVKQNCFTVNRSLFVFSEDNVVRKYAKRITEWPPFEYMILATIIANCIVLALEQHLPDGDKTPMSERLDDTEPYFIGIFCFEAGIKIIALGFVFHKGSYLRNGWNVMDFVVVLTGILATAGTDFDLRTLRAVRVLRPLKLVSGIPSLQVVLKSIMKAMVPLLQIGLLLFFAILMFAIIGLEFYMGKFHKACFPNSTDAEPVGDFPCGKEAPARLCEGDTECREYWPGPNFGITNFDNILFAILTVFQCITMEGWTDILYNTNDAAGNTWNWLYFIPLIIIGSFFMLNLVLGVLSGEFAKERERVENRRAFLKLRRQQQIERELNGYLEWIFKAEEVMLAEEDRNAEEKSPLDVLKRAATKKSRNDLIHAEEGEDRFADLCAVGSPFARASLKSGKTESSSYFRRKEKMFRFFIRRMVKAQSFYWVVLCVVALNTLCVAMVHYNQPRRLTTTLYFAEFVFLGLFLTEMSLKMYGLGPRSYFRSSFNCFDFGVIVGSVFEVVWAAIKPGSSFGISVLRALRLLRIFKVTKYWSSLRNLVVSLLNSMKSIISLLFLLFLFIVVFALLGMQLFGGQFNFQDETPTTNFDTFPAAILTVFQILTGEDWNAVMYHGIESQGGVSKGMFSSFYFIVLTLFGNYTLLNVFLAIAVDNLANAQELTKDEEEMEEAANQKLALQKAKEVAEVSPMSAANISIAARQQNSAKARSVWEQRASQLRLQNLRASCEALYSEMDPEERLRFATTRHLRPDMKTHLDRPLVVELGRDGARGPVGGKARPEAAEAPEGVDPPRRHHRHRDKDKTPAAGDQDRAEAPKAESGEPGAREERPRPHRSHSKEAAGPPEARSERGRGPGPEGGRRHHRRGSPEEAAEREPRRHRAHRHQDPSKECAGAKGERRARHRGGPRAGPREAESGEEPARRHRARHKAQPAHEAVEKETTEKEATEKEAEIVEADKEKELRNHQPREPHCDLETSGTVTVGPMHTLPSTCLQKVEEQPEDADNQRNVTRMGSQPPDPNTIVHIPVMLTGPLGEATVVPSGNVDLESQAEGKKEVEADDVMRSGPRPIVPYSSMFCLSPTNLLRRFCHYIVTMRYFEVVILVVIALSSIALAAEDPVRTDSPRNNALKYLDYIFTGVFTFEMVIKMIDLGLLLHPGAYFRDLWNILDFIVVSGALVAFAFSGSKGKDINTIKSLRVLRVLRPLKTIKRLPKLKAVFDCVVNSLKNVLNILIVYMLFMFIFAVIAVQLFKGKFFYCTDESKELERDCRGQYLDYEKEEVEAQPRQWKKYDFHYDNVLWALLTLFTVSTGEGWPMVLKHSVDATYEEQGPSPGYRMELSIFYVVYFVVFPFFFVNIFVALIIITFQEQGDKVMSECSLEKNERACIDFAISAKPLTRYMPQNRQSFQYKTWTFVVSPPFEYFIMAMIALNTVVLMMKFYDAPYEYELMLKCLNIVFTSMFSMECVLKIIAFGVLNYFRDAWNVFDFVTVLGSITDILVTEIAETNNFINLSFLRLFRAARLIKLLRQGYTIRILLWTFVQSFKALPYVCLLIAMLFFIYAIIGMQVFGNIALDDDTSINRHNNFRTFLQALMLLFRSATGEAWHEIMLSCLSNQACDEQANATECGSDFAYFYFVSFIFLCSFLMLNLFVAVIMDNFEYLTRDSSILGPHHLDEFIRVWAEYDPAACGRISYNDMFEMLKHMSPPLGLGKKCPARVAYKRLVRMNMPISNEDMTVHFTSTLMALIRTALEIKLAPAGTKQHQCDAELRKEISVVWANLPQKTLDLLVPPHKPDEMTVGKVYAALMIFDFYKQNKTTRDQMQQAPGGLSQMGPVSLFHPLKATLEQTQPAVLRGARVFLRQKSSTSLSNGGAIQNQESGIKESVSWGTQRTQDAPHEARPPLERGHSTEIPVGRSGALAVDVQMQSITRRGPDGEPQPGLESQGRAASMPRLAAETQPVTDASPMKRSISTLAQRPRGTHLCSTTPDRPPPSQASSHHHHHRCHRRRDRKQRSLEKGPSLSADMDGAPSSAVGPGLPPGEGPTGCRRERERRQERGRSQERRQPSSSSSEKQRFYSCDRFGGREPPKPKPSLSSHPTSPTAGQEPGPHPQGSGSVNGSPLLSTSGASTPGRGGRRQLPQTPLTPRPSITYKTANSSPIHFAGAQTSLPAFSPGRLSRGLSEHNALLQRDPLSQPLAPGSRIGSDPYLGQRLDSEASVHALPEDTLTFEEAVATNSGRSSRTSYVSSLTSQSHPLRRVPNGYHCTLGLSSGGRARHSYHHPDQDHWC
# T5 sequence (Q02410 whole entry): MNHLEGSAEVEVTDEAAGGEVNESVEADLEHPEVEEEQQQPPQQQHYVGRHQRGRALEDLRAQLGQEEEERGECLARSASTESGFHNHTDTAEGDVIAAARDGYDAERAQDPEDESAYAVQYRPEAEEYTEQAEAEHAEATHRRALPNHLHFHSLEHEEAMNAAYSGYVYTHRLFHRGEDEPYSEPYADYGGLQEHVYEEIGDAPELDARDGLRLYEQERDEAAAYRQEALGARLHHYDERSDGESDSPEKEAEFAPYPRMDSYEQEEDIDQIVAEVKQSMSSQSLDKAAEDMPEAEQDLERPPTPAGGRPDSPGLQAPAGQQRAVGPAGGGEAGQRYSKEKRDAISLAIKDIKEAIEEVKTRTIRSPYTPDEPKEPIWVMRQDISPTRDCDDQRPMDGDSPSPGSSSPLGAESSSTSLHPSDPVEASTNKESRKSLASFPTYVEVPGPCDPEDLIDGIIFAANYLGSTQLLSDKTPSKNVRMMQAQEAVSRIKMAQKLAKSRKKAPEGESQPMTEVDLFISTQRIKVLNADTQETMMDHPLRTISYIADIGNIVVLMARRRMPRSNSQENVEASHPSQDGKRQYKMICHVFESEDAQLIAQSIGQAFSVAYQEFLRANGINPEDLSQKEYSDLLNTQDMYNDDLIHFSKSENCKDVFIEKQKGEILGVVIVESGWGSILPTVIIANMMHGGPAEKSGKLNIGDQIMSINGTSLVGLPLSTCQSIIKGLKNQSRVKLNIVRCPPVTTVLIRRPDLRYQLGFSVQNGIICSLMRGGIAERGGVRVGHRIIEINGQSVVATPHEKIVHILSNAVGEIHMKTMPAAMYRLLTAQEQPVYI
# Luciferin 4-monooxygenase, sequence (P08659 whole entry): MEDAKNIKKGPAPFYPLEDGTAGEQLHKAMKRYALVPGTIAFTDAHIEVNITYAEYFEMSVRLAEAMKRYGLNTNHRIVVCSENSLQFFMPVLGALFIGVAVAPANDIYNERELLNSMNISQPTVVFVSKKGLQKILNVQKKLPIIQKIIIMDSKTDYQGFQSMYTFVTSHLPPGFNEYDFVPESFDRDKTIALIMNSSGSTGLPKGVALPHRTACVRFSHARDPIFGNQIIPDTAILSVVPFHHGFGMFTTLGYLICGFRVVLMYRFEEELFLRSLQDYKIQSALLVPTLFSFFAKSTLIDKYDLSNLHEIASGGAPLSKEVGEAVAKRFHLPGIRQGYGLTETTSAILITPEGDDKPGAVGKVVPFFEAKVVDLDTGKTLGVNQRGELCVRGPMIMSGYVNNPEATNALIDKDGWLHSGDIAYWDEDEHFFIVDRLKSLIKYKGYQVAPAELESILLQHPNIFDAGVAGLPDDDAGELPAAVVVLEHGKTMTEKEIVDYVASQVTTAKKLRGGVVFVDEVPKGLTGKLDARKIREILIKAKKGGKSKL
# Epstein-Barr nuclear antigen 1, sequence (P03211 whole entry): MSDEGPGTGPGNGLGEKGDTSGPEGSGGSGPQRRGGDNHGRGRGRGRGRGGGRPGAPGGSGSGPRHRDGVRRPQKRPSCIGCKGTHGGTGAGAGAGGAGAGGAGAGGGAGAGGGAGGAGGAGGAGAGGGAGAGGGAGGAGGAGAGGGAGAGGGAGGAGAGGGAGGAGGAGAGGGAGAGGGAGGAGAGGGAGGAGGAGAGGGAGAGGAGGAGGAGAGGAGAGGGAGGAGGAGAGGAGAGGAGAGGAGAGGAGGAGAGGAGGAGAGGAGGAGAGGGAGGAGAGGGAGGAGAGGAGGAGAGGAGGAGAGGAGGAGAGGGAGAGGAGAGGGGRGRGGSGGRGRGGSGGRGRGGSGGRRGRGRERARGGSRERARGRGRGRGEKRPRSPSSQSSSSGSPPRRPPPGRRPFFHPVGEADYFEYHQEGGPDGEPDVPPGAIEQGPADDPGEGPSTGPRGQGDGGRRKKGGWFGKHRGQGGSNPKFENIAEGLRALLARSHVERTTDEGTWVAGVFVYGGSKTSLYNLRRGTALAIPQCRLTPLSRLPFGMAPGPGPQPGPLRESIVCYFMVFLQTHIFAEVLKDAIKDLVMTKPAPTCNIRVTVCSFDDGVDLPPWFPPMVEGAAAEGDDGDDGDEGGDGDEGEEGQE
# Lytic switch protein BZLF1, sequence (P03206 whole entry): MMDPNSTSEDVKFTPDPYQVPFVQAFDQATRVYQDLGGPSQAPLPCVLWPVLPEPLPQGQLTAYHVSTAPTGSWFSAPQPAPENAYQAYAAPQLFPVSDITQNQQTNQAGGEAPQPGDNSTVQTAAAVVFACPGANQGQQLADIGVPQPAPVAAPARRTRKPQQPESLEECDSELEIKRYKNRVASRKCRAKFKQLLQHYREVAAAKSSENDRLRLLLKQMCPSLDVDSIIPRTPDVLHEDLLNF
smiles,measurement,setting,value
COCCNC(=O)c1cc(-c2ccc(Cl)cc2Cl)n[nH]1,IC50,[1],> 10 µM (inconclusive)
c1ccc(C2=NN=C(NC3CC3)SC2)cc1,EC50,[2],10.5 µM (active)
same,EC50,HT-1080,> 50 µM (not active)
same,EC50,BJ [3],13.1 µM (active)
same,AC50,HEK293,2.58 µM (active)
same,EC50,BJ [4],12.4 µM (inconclusive)
same,IC50,cells,> 67.6 µM (inactive)
same,IC50,[5],> 67.6 µM (inactive)
same,EC50,[6],1.24 µM (active)
same,EC50,BJ [7],> 150 µM (inconclusive)
O=C(COC(=O)/C=C/c1ccccc1)Nc1cc(C(F)(F)F)ccc1N1CCOCC1,IC50,[8],7.3 µM (active)
same,IC50,[9],> 111 µM (not active)
Cc1nnc(NC(=O)CSc2nc3c(c(=O)n2CCc2ccccc2)SC(C)C3)s1 (centres undefined),IC50,Estrogen receptor,17.5 µM (active)
CCOC(=O)C1=C(Nc2ccc(C)cc2)S/C(=C\c2cn(CC(=O)NCC3CCCO3)c3ccccc23)C1=O (centres undefined),IC50,Estrogen receptor,7.6 µM (active)
CCN1C(=O)C(=CNNC(=O)c2ccccc2)C(=O)N(CC)C1=S,CC50,[10],> 40 µM (active)
O=C(/C=C/c1ccccc1)CC(O)(c1ccccc1)C(F)(F)F (centres undefined),IC50,[11],1.97 µM (active)
same,IC50,Vero [12],> 25 µM (active)
same,IC50,[13],25.9 µM (not active)
same,CC50,Vero [14],13.6 µM (active)
CCOc1cc(C)c(Cl)cc1S(=O)(=O)Nc1cccnc1,IC50,[1],> 100 µM (not active)
Fc1ccccc1OCCSc1nnnn1-c1ccccc1,EC50,HT-1080,> 50 µM (not active)
same,EC50,[6],3.32 µM (active)
CCOC(=O)c1sc2nc(CC(=O)OC)nc(NCc3ccc(F)cc3)c2c1C,EC50,[15],> 79.4 µM (not active)
same,AC50,Cytochrome P450 2C19,5.62 µM (inconclusive)
same,EC50,[16],> 79.4 µM (not active)
same,AC50,Cytochrome P450 2C9,5.01 µM (inconclusive)
same,EC50,[17],> 79.4 µM (not active)
Cc1cc(C(=O)N/N=C/c2c[nH]nc2-c2ccccc2)cs1,EC50,[15],> 79.4 µM (not active)
same,EC50,[16],> 79.4 µM (not active)
same,EC50,[17],> 79.4 µM (not active)
COc1ccc(S(=O)(=O)N(C(=O)c2ccncc2)c2ccc3oc4c(c3c2)CCCC4)cc1,CC50,[10],> 40 µM (active)
COc1ccc(C(=O)CSc2nnc(NC(=O)C3CC(=O)N(c4cccc(OC)c4)C3)s2)cc1 (centres undefined),IC50,[8],5.9 µM (active)
same,IC50,[9],> 111 µM (not active)
CS(=O)(=O)C1=NSC2=NC(=O)/C(=C\c3ccc(OS(=O)(=O)c4ccccc4)cc3)C(=N)N21,IC50,[18],4.17 µM (active)
same,IC50,[19],5.01 µM (active)
same,IC50,[20],39.3 µM (active)
COc1ccc(/N=C2\S/C(=C\c3ccc(OC(C)C(=O)O)c(OC)c3)C(=O)N2CCc2c[nH]c3ccccc23)cc1 (centres undefined),IC50,[21],> 50 µM (inactive)
same,EC50,[22],1.86 µM (active)
same,IC50,[23],15.8 µM (active)
same,IC50,[24],7.55 µM (active)
same,EC50,Streptococcus,4.41 µM (active)
same,EC50,Streptokinase A,> 50 µM (not active)
same,IC50,[20],> 50 µM (active)
COc1ccc(NC(=O)CSc2nc3ccccc3c(=O)n2-c2ccc(F)cc2)cc1,IC50,[25],> 66.6 µM (active)
